Assay results published in US20260297081A1, “COMPOUNDS AND METHODS OF TREATING CANCERS” (Cullgen Inc., priority 2023, published 2026).

Columns and labels:
Type in all cases: cell-based
[1] = test system: T47D cells; experiment: Anti-proliferation (viability) of ER+ breast cancer T47D cells, 6 days (Table 7, FIG. 2B); details: Homo sapiens, 144 h; T47D cells, 6 days, 10-point serial dilution; read-out: GI IC50 in T47D
Method in brief: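 Treatment length differs by line: Calu-1 cells receive degrader for 3 days, T47D cells for 6 days, each over a 10-point dilution series. A warhead-modified analogue with unchanged DDB1 binder and linker served as the non-CDK4-binding control.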

[2] = test system: MCF7 cells; experiment: Anti-proliferation (viability) of MCF7 cells (Table 7, FIG. 2B); details: Homo sapiens, MCF7, MCF7 cells, 3-6 days, 10-point serial dilution; read-out: GI IC50 in MCF-7
[3] = test system: T47D cells; experiment: Flow cytometric analysis of Annexin V/7-AAD stained T47D cells (apoptosis), 6 days (FIG. 3A)
Protocol: T47D cells were treated with DMSO, palbociclib, heterobifunctional compound CPD-10 for 6 days at doses approximating IC50and IC90 concentrations as indicated (FIG. 3A). HCC1428 cells were treated with DMSO, palbociclib, heterobifunctional compound CPD-10, or its negative control compound CPD-143 for 6 days at doses approximating IC90 concentrations as indicated (FIG. 3B). Cells were harvested by trypsinization, staining was carried out using the Annexin V Apoptosis Detection Kit. The percentages of early apoptotic (Annexin V^+7-AAD^−, lower right quadrant), late apoptotic (Annexin V^+7-AAD^+, upper right quadrant) and necrotic cells (Annexin V^−7-AAD^+, upper left quadrant) are indicated on dot plots.

[4] = test system: FoxM1; experiment: Immunoblotting of FoxM1 protein level (FIG. 1A-1B); details: Calu-1 (4 hours), MCF7 (24 hours)
Protocol: (§1) Calu-1 cells were treated with heterobifunctional compound CPD-10, or CDK4/6 inhibitor palbociclib at indicated concentrations for 4 hours (FIG. 1A). MCF7 cells were deprived of serum for 2 hours followed by treatment with CPD-10, or palbociclib at indicated concentrations for 24 hours (FIG. 1B).
(§2) Antibody and Reagent Anti-cyclin D1 (29785), anti-cyclin D2 (3741S), anti-cyclin D3 (2936S), anti-CDK4 (127905), anti-CDK6 (3136S), anti-phospho-Rb (8516S), anti-FoxM1 (54365), anti-cyclinA2(4656S), anti-vinculin antibody (187995) antibodies were purchased from Cell Signaling Technology. HRP-conjugated anti-α-tubulin antibody and anti-α-GAPDH antibody were purchased from GNI. Media, and other cell culture reagents were purchased from Thermo Fisher Scientific. CellTiter-Glo Luminescent Assay kit was purchased from Promega.
(§3) Calu-1, T47D, MCF7, HCC1428 and other cells were cultured at 37° C. with 5% CO2 in RPMI 1640 or DMEM medium supplemented with 10% fetal bovine serum. Cells were authenticated using the short tandem repeat (STR) assays. […]
(§4) Cultured cells were washed with cold PBS once and lysed in cold RIPA buffer supplemented with protease inhibitors and phosphatase inhibitors (Beyotime Biotechnology). […] Total protein concentrations in the lysates were determined following BCA assays (Beyotime Biotechnology). […] Protein bands were quantitated using the Image Lab software provided by Bio-Rad.

[5] = test system: cyclin A2; experiment: Immunoblotting of cyclin A2 protein level (FIG. 1A-1B); details: Calu-1 (4 hours), MCF7 (24 hours)
Protocol: as §1, §2, §3, §4

[6] = test system: p-Rb; experiment: Immunoblotting of Rb phosphorylation (FIG. 1A-1B); details: Calu-1 (4 hours), MCF7 (24 hours)
Protocol: as §1, §2, §3, §4

[7] = test system: T47D cells; experiment: Annexin V apoptosis flow cytometry, T47D (FIG. 3A); details: 6 days
Protocol: (§5) T47D cells were treated with DMSO, palbociclib, heterobifunctional compound CPD-10 for 6 days at doses approximating IC50 and IC90 concentrations as indicated (FIG. 3A). HCC1428 cells were treated with DMSO, palbociclib, heterobifunctional compound CPD-10, or its negative control compound CPD-143 for 6 days at doses approximating IC90 concentrations as indicated (FIG. 3B). Cells were harvested by trypsinization, staining was carried out using the Annexin V Apoptosis Detection Kit.
(§6) Assays were performed on the CytoFLEX Cytometer (Beckman Coulter), and data were analyzed using CytExpert software. For cell death and apoptosis analysis, cells were harvested by trypsinization, staining was carried out using the Annexin V Apoptosis Detection Kit (BD Biosciences). Briefly, cells were resuspended in 1× binding buffer and incubated with fluorochrome-conjugated Annexin V and 7-AAD for 15 min in darkness at room temperature.

[8] = test system: HCC1428 cells; experiment: Annexin V apoptosis flow cytometry, HCC1428 (FIG. 3B); details: HCC1428, dose approximating IC90, 6 days
Protocol: as §5, §6

[9] = test system: T47D palbo-resistant cells; experiment: Cell viability in T47D palbociclib-resistant model (FIG. 4); details: 10-point serial dilution, 6 days
Protocol: T47D cells were cultured long-term to resistance in the presence of 1 μM Palbociclib. Palbo resistance was determined by CellTiter-Lumi cell viability assay. T47D parental or palbo-resistant cells were treated with palbociclib, or heterobifunctional compounds CPD-10 or CPD-39 following a 10-point serial dilution for 6 days.
(§7) Calu-1, T47D, MCF7, HCC1428 and other cells were cultured at 37° C. with 5% CO2 in RPMI 1640 or DMEM medium supplemented with 10% fetal bovine serum. Cells were authenticated using the short tandem repeat (STR) assays. Mycoplasma test results were negative. For palbo-resistant cell model, T47D cells were cultured long-term to resistance in the presence of 1 μM Palbociclib. Cells were deemed resistant when growing in the presence of Palbo at the same rate as parental cells.
Cells were seeded at a density of 2,000-5,000 cells per well in 96-well assay plates and treated with test compounds following a 10-point serial dilution for 3-6 days. Cell viability was determined using the CellTiter-Lumi assay kit according to the manufacturer's instructions. The dose-response curves were determined and IC50 values were calculated using the GraphPad Prism software following a nonlinear regression (least squares fit) method. Data presented was mean±standard deviation (SD)unless otherwise indicated.

[10] = molecular target: CDK4 (Homo sapiens, UniProt P11802+Q16531); experiment: Immunoblotting of CDK4 protein level in Calu-1 and MCF7 cells (FIG. 1A-1B); design: Cells that express cyclin D1-3 and CDK4/6 proteins were treated with heterobifunctional compounds; endogenous in cells; host or cells: Calu-1
Sequence of CDK4 (P11802 2-303 limits assumed): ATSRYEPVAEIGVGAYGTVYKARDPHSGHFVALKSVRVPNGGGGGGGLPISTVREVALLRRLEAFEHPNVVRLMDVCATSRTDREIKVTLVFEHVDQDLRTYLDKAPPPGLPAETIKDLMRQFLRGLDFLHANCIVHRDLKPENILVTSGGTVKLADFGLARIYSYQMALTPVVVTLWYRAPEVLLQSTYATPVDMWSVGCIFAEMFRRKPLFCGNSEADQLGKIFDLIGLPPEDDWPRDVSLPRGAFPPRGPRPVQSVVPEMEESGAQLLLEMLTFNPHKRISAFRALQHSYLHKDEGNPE
Sequence of CDK4 (P24385 whole entry partner): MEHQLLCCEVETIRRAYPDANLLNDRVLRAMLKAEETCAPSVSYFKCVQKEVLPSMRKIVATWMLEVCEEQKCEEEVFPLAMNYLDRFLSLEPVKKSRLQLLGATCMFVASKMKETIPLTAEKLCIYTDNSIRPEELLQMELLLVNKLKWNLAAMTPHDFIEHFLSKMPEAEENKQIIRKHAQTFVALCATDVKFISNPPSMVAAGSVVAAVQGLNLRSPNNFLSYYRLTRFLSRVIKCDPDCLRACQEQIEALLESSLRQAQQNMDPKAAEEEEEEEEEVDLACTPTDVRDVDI
Sequence of CDK4 (Q16531 2-1140 limits assumed): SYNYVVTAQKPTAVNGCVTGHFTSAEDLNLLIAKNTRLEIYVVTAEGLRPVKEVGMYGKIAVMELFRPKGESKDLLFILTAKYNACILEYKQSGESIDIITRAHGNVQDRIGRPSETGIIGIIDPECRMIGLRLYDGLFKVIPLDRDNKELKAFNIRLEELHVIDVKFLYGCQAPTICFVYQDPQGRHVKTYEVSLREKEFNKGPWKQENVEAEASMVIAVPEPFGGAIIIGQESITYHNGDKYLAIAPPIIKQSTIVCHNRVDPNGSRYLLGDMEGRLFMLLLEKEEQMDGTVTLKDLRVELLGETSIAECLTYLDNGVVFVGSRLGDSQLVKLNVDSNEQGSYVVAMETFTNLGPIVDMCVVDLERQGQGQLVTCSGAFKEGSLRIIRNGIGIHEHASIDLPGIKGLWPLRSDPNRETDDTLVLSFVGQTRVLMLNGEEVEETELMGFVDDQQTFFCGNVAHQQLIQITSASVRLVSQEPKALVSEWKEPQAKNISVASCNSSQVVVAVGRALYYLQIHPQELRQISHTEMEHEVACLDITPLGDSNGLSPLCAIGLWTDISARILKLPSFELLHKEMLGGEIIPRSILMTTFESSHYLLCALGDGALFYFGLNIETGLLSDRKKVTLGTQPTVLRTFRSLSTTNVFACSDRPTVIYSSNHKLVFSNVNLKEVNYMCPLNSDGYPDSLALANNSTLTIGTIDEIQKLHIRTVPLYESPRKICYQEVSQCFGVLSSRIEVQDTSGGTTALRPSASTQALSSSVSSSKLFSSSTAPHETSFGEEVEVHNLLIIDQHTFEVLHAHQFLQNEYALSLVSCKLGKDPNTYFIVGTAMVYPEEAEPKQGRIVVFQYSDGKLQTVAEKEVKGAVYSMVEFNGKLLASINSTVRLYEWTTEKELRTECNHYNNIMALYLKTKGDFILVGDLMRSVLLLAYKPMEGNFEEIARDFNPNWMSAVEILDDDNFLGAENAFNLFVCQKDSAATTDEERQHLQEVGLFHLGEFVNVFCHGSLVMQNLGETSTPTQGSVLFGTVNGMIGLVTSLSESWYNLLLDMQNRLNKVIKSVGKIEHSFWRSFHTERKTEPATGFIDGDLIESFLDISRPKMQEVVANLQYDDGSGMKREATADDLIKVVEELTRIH
Protocol: as §1, §2, §7
Cultured cells were washed with cold PBS once and lysed in cold RIPA buffer supplemented with protease inhibitors and phosphatase inhibitors (Beyotime Biotechnology). The solutions were then incubated at 4 ? for 30 min with gentle agitation to fully lysed cells. Cell lysates were centrifuged at 13,000 rpm for 10 min at 4 ? and pellets were discarded. Total protein concentrations in the lysates were determined following BCA assays (Beyotime Biotechnology). Cell lysates were mixed with Laemmli loading buffer and heated at 99° C. for 5 min. Proteins were resolved on SDS-PAGE and visualized using Western ECL Substrate kits on a ChemiDoc MP Imaging system (Bio-Rad). Protein bands were quantitated using the Image Lab software provided by Bio-Rad.

CNc1ccc(C(=O)Nc2ccc(N(C)C)nn2)c(NCCCCCCCNC(=O)CN2CCN(c3ccc(Nc4ncc5c(C)c(C(C)=O)c(=O)n(C6CCCC6)c5n4)nc3)CC2)n1 [CPD-10, 2-((7-(2-(4-(6-((6-acetyl-8-cyclopentyl-5-methyl-7-oxo-7,8-dihydropyrido[2,3-d]pyrimidin-2-yl)amino)pyridin-3-yl)piperazin-1-yl)acetamido)heptyl)amino)-N-(6-(dimethylamino)pyridazin-3-yl)-6-(methylamino)nicotinamide]
IC50 [1]: ≤ 50 nM | IC50 [2]: 50 to 100 nM | Annexin V+ population ([3]; 15 nM): 20.9% | Annexin V+ population ([3]; 200 nM): 62.2% | FoxM1 protein level [4]: inhibited downstream FoxM1 and cyclin A2 protein levels, and Rb phosphorylation in a concentration-dependent manner | cyclin A2 protein level [5]: inhibited downstream FoxM1 and cyclin A2 protein levels, and Rb phosphorylation in a concentration-dependent manner | Rb phosphorylation [6]: inhibited downstream FoxM1 and cyclin A2 protein levels, and Rb phosphorylation in a concentration-dependent manner | Annexin V+ population ([7]; 15 nM): 20.9% | Annexin V+ population ([7]; 200 nM): 62.2% | Annexin V+ population [8]: 55.8% | cell viability in palbociclib-resistant model [9]: remained effective in T47D palbo-resistant model | CDK4 protein level ([10]; Calu-1 cells, 4 hours): reduced CCND1, CCND3, and CDK4 protein levels in a concentration-dependent manner in both cell lines | CDK4 protein level ([10]; MCF7 cells, serum deprived 2 hours, treated 24 hours): reduced CCND1, CCND3, and CDK4 protein levels in a concentration-dependent manner in both cell lines
